Experimental data published in publication PMC9780108, “An intrinsically disordered antimicrobial peptide dendrimer from stereorandomized virtual screening” (Cell Reports. Physical Science, 2022).
≈ marks a conversion by molar mass, not a printed value. Positions of bridges follow the written chain, without caps; N, C: chain ends. Non-standard residues stand in square brackets, D forms with d. Residues, ends and D or L forms follow the SMILES beside them. Groups on a side chain read outwards from the residue. Chains are numbered I, II in the order given. *: point of attachment. X4 = CC(C)C[C@@H](NC(=O)CCCCCN)C(=O)NCCCC[C@@H](NC(=O)[C@@H](CC(C)C)NC(=O)CCCCCN)C(=O)*; Ahx = NCCCCCC(=O)O

Columns and labels:
HEK293 cell line = type: cell-based; details: 48 h
Method: HEK 293 cell line were cultured and maintained in DMEM (Dulbeccos modified Eagle
medium, Sigma Aldrich) supplemented with 10% FBS (Sigma Aldrich) and 1%
penicillin/streptomycin. Cells were incubated in a humidified incubator at 37°C in the presence
HEK 293 cell were seeded into 96 well plates at the density of 2 × 10^3 cells/well and incubated
in DMEM containing 10% FBS for 10-14 hours at 37°C in the presence of 5% CO2. The next
day, stock solution of compounds were prepared at concentration of 2 mg/mL in DMEM
containing 10% FBS. 1/2 or 1/3 serial dilution of the peptide dendrimers from 2 mg/mL or 200
µg/mL were performed in DMEM containing 10% FBS. The medium was removed from cell
culture and replaced with the compounds at different concentration after washing with PBS.
The cells were incubated in DMEM containing 10% FBS at 37°C in the presence of 5% CO 2.
Negative control was untreated cell culture without compounds and blank control was wells
without cell but only medium. After 48 hours, a final concentration of 10% AlamarBlue®
(Thermo Fisher Scientific, Reinach, CH) was added to each well . The cells were incubated for
3-5 hours at 37°C with 5% CO 2. The fluorescence was then measured on a Tecan Infinite
M1000 Pro plate reader at λex = 560 nm and λem = 590 nm. The value was normalized
according to the untreated cells.

E. coli W3110 = details: for MIC at pH 5.0, E. coli W3110: W3110, pH 5; for MIC at pH 7.4, E. coli W3110: W3110, pH 7.4; for MIC at pH 8.0, E. coli W3110: W3110, pH 8
A. baumannii ATCC 19606 = details: for MIC at pH 5.0, A. baumannii ATCC 19606: ATCC 19606, pH 5; for MIC at pH 7.4, A. baumannii ATCC 19606: ATCC 19606, pH 7.4; for MIC at pH 8.0, A. baumannii ATCC 19606: ATCC 19606, pH 8
P. aeruginosa PAO1 = details: for MIC at pH 5.0, P. aeruginosa PAO1: PAO1, pH 5; for MIC at pH 7.4, P. aeruginosa PAO1: PAO1, pH 7.4; for MIC at pH 8.0, P. aeruginosa PAO1: PAO1, pH 8
K. pneumoniae NCTC 418 = details: for MIC at pH 5.0, K. pneumoniae NCTC 418: NCTC 418, pH 5; for MIC at pH 7.4, K. pneumoniae NCTC 418: NCTC 418, pH 7.4; for MIC at pH 8.0, K. pneumoniae NCTC 418: NCTC 418, pH 8
[1] = system: S aureus COL (methicillin-resistant Staphylococcus aureus); details: for MIC at pH 5.0, S aureus COL: COL (methicillin-resistant, pH 5); for MIC at pH 7.4, S aureus COL: COL (methicillin-resistant, pH 7.4); for MIC at pH 8.0, S aureus COL: COL (methicillin-resistant, pH 8)

SMILES	IC50 HEK293 (HEK293 cell line) [µg/mL]	MIC at pH 5.0, E. coli W3110 (E. coli W3110) [μg/mL]	MIC at pH 7.4, E. coli W3110 (E. coli W3110) [μg/mL]	MIC at pH 8.0, E. coli W3110 (E. coli W3110) [μg/mL]	MIC at pH 5.0, A. baumannii ATCC 19606 (A. baumannii ATCC 19606) [μg/mL]	MIC at pH 7.4, A. baumannii ATCC 19606 (A. baumannii ATCC 19606) [μg/mL]	MIC at pH 8.0, A. baumannii ATCC 19606 (A. baumannii ATCC 19606) [μg/mL]	MIC at pH 5.0, P. aeruginosa PAO1 (P. aeruginosa PAO1)	MIC at pH 7.4, P. aeruginosa PAO1 (P. aeruginosa PAO1)	MIC at pH 8.0, P. aeruginosa PAO1 (P. aeruginosa PAO1)	MIC at pH 5.0, K. pneumoniae NCTC 418 (K. pneumoniae NCTC 418)	MIC at pH 7.4, K. pneumoniae NCTC 418 (K. pneumoniae NCTC 418)	MIC at pH 8.0, K. pneumoniae NCTC 418 (K. pneumoniae NCTC 418)	MIC at pH 5.0, S aureus COL [1] [μg/mL]	MIC at pH 7.4, S aureus COL [1] [μg/mL]	MIC at pH 8.0, S aureus COL [1] [μg/mL]
CC(C)C[C@@H](NC(=O)[C@@H](CC(C)C)NC(=O)[C@@H](CCCCN)NC(=O)[C@@H](CCCCNC(=O)[C@@H](CC(C)C)NC(=O)[C@@H](CC(C)C)NC(=O)[C@@H](CCCCNC(=O)[C@@H](CC(C)C)NC(=O)[C@@H](CCCCN)NC(=O)[C@@H](CCCCNC(=O)[C@@H](CC(C)C)NC(=O)[C@H](N)CCCCN)NC(=O)[C@@H](CC(C)C)NC(=O)[C@H](N)CCCCN)NC(=O)[C@@H](CC(C)C)NC(=O)[C@@H](CCCCN)NC(=O)[C@@H](CCCCNC(=O)[C@@H](CC(C)C)NC(=O)[C@H](N)CCCCN)NC(=O)[C@@H](CC(C)C)NC(=O)[C@H](N)CCCCN)NC(=O)[C@@H](CC(C)C)NC(=O)[C@@H](CC(C)C)NC(=O)[C@@H](CCCCNC(=O)[C@@H](CC(C)C)NC(=O)[C@@H](CCCCN)NC(=O)[C@@H](CCCCNC(=O)[C@@H](CC(C)C)NC(=O)[C@H](N)CCCCN)NC(=O)[C@@H](CC(C)C)NC(=O)[C@H](N)CCCCN)NC(=O)[C@@H](CC(C)C)NC(=O)[C@@H](CCCCN)NC(=O)[C@@H](CCCCNC(=O)[C@@H](CC(C)C)NC(=O)[C@H](N)CCCCN)NC(=O)[C@@H](CC(C)C)NC(=O)[C@H](N)CCCCN)C(N)=O [D-T25, reference compound] (HELM PEPTIDE1{[dK].[dL].[dK].[dK].[dL].[dK].[dL].[dL].[dK].[dK].[dL].[dL].[am]}|PEPTIDE2{[dK].[dL]}|PEPTIDE3{[dK].[dL].[dK].[dK].[dL].[dK].[dL].[dL]}|PEPTIDE4{[dK].[dL]}|PEPTIDE5{[dK].[dL].[dK].[dK].[dL]}|PEPTIDE6{[dK].[dL]}|PEPTIDE7{[dK].[dL].[dK].[dK].[dL]}|PEPTIDE8{[dK].[dL]}$PEPTIDE1,PEPTIDE2,3:R3-2:R2|PEPTIDE3,PEPTIDE4,3:R3-2:R2|PEPTIDE5,PEPTIDE6,3:R3-2:R2|PEPTIDE7,PEPTIDE8,3:R3-2:R2|PEPTIDE1,PEPTIDE7,6:R3-5:R2|PEPTIDE1,PEPTIDE3,9:R3-8:R2|PEPTIDE3,PEPTIDE5,6:R3-5:R2$$$V2.0)	33 ± 3 (≈ 7.15 µM)	32	8	4	32	8	4	32 μg/mL	8 μg/mL	8 μg/mL	> 64 μg/mL	16 μg/mL	16 μg/mL	> 64	> 64	32
CC(C)C[C@@H](NC(=O)[C@@H](CC(C)C)NC(=O)[C@@H](CC(C)C)NC(=O)[C@@H](CCCCNC(=O)[C@@H](CC(C)C)NC(=O)[C@@H](CC(C)C)NC(=O)[C@@H](CCCCNC(=O)[C@@H](CCCCN)NC(=O)[C@@H](CC(C)C)NC(=O)[C@@H](CCCCNC(=O)[C@@H](CC(C)C)NC(=O)[C@H](N)CCCCN)NC(=O)[C@@H](CC(C)C)NC(=O)[C@H](N)CCCCN)NC(=O)[C@@H](CCCCN)NC(=O)[C@@H](CC(C)C)NC(=O)[C@@H](CCCCNC(=O)[C@@H](CC(C)C)NC(=O)[C@H](N)CCCCN)NC(=O)[C@@H](CC(C)C)NC(=O)[C@H](N)CCCCN)NC(=O)[C@@H](CC(C)C)NC(=O)[C@@H](CC(C)C)NC(=O)[C@@H](CCCCNC(=O)[C@@H](CCCCN)NC(=O)[C@@H](CC(C)C)NC(=O)[C@@H](CCCCNC(=O)[C@@H](CC(C)C)NC(=O)[C@H](N)CCCCN)NC(=O)[C@@H](CC(C)C)NC(=O)[C@H](N)CCCCN)NC(=O)[C@@H](CCCCN)NC(=O)[C@@H](CC(C)C)NC(=O)[C@@H](CCCCNC(=O)[C@@H](CC(C)C)NC(=O)[C@H](N)CCCCN)NC(=O)[C@@H](CC(C)C)NC(=O)[C@H](N)CCCCN)C(N)=O [D-X18] (HELM PEPTIDE1{[dK].[dL].[dK].[dL].[dK].[dK].[dL].[dL].[dK].[dL].[dL].[dL].[am]}|PEPTIDE2{[dK].[dL]}|PEPTIDE3{[dK].[dL].[dK].[dL].[dK].[dK].[dL].[dL]}|PEPTIDE4{[dK].[dL]}|PEPTIDE5{[dK].[dL].[dK].[dL].[dK]}|PEPTIDE6{[dK].[dL]}|PEPTIDE7{[dK].[dL].[dK].[dL].[dK]}|PEPTIDE8{[dK].[dL]}$PEPTIDE1,PEPTIDE2,3:R3-2:R2|PEPTIDE3,PEPTIDE4,3:R3-2:R2|PEPTIDE5,PEPTIDE6,3:R3-2:R2|PEPTIDE7,PEPTIDE8,3:R3-2:R2|PEPTIDE1,PEPTIDE7,6:R3-5:R2|PEPTIDE1,PEPTIDE3,9:R3-8:R2|PEPTIDE3,PEPTIDE5,6:R3-5:R2$$$V2.0)	47 ± 12 (≈ 10.2 µM)	32	64	32	32	64	32	32 μg/mL	64 μg/mL	32 μg/mL	>64/>64/>64 μg/mL	>64/>64/>64 μg/mL	>64/>64/>64 μg/mL	> 64	> 64	32
CC(C)C[C@@H](NC(=O)[C@@H](CC(C)C)NC(=O)[C@@H](CC(C)C)NC(=O)[C@@H](CCCCNC(=O)[C@@H](CC(C)C)NC(=O)[C@@H](CC(C)C)NC(=O)[C@@H](CCCCNC(=O)[C@@H](CCCCN)NC(=O)[C@@H](CC(C)C)NC(=O)[C@@H](CCCCNC(=O)[C@@H](CC(C)C)NC(=O)CCCCCN)NC(=O)[C@@H](CC(C)C)NC(=O)CCCCCN)NC(=O)[C@@H](CCCCN)NC(=O)[C@@H](CC(C)C)NC(=O)[C@@H](CCCCNC(=O)[C@@H](CC(C)C)NC(=O)CCCCCN)NC(=O)[C@@H](CC(C)C)NC(=O)CCCCCN)NC(=O)[C@@H](CC(C)C)NC(=O)[C@@H](CC(C)C)NC(=O)[C@@H](CCCCNC(=O)[C@@H](CCCCN)NC(=O)[C@@H](CC(C)C)NC(=O)[C@@H](CCCCNC(=O)[C@@H](CC(C)C)NC(=O)CCCCCN)NC(=O)[C@@H](CC(C)C)NC(=O)CCCCCN)NC(=O)[C@@H](CCCCN)NC(=O)[C@@H](CC(C)C)NC(=O)[C@@H](CCCCNC(=O)[C@@H](CC(C)C)NC(=O)CCCCCN)NC(=O)[C@@H](CC(C)C)NC(=O)CCCCCN)C(N)=O [D-aX18] (I: H-[Ahx][dL][dK]([dL-Ahx])[dL][dK][dK]([dK-dL-X4])[dL][dL][dK][dL][dL][dL]-NH2 / II: H-[Ahx][dL][dK]([dL-Ahx])[dL][dK][dK]([dK-dL-X4])[dL][dL]; amide I:9-II:C)	21 ± 2 (≈ 4.69 µM)	32	> 64	32	32	> 64	16	64/>64/64 μg/mL	64/>64/64 μg/mL	64/>64/64 μg/mL	>64/>64/>64 μg/mL	>64/>64/>64 μg/mL	>64/>64/>64 μg/mL	> 64	> 64	16
